# Reference: patent publication US20120164729A1, “COMPOSITION FOR CULTURING PLURIPOTENT STEM CELLS AND USE THEREOF” (NATIONAL UNIVERSITY CORPORATION CHIBA UNIVERSITY, priority 2010, published 2012)
# Tests used:
# Assay type in all cases: cell-based, human
# [1] = system: 201B7 cells; experiment: Effect of activin A on differentiation of embryoid bodies formed by hanging drop culture (microscopic observation); conditions: activin A 100 ng/mL instead of bFGF; at least 14 days after the initiation of culture; Matrigel-coated plate
# Procedure: Cell culture was carried out using cells of strain HPS0001 201B7, which are human induced pluripotent stem cells (iPS cells), obtained from RIKEN BioResource Center, Cell Bank. The cell culture was carried out in a humidified chamber at 37° C. under the conditions of 5% CO2 using, as a medium, Dulbecco […] (DMEM)-F12 medium (manufactured by Sigma-Aldrich Japan K.K.) supplemented with a knockout serum replacement additive (KSR; manufactured by Life Technologies Japan, Ltd. (final concentration 20%), a 1/100 dilution of 100-times concentrated […] (manufactured by Life Technologies Japan, Ltd.), 2 mM L-glutamine (manufactured by Life Technologies Japan, Ltd.), 0.1 mM 2-mercaptoethanol (manufactured by Sigma-Aldrich Japan K.K.), and 5 ng/mL of basic fibroblast growth factor (bFGF; manufactured by Wako Pure Chemical industries, Ltd.). At this time, 201B7 cell line was proliferated by co-culturing 201B7 cell line on cells of strain SNL76/7, which are mouse-derived fetal fibroblasts proliferated on a culture plate (manufactured by AGC Techno Glass Corp.) treated with mitomycin C (manufactured by Sigma-Aldrich Japan K.K.) and coated with gelatin (manufactured by Sigma-Aldrich Japan K.K.), and the 201B7 cell line was maintained. Also, at the time of subculturing, cells were collected using a CTK solution. […]
# [2] = system: 201B7 cells; experiment: Alkaline phosphatase staining of subcultured cells at the 12th passage; conditions: activin A 10 ng/mL, CHIR99021 2 μM, LIF 1000 U/mL
# Source text: Among the cells that had been subcultured as described above, those subcultured in the presence of activin A alone (A), a combination of activin A+CHIR99021 (AC), and a combination of activin A+CHIR99021+LIF (ACL) were subjected to alkaline phosphatase staining as described above, at the 12th passage. The results are shown in the photographs on the left side of FIG. 5.
# [3] = system: 201B7 cells; experiment: Evaluation of cell proliferative capacity by MTS assay; conditions: FIG. 2
# Procedure: The proliferative capacity of 201B7 cells that had been cultured in the presence of activin A was evaluated by an MTS assay.
# [4] = system: 201B7 cells; experiment: Immunostaining of subcultured cells for pluripotency markers (Oct3/4, Nanog, SSEA4, TRA-1-60); conditions: cells subcultured from the 11th passage
# Procedure: Each of the cells at the 11th passage was seeded on a Matrigel-coated 4-well slide glass, and subculture was continued. When the cells reached 70% confluency, the medium was removed, and the cells were washed once with PBS. The cells were immobilized with 4% para-formaldehyde, and then were washed three times with PBS. Meanwhile, in the case of staining for Oct3/4 and Nanog, a permeabilization solution (0.2% Triton X-100 (PBS solution)) was added to the cells, and the cells were left to stand for 15 minutes at room temperature. Subsequently, the cells were washed three times for 5 minutes with a washing buffer (2% FBS (PBS solution)).
# Thereafter, primary antibodies diluted with the washing buffer were added to the cells, and the cells were left to stand overnight at 4° C. Meanwhile, the types of the various primary antibodies and the dilution ratios are as follows.
# Mouse anti-Oct3/4 antibody (BD Transduction Laboratories): 200 times
# Rabbit anti-Nanog antibody (manufactured by ReproCELL Inc.): 1000 times
# Mouse anti-SSEA4 antibody (manufactured by Chemicon Corporation): 200 times
# Mouse anti-TRA-1-60 antibody (manufactured by Chemicon Corporation): 200 times
# Subsequently, the cells were […] three times for 5 minutes with the washing buffer, and then secondary antibodies diluted with the washing buffer were added. The cells were left to stand for one hour at 4° C. […]
# [5] = system: 201B7 cells; experiment: Confirmation of maintenance of undifferentiation potency by alkaline phosphatase (ALP) staining and phase contrast morphology
# Source text: It was confirmed by alkaline phosphatase (ALP) staining that the 201B7 cells cultured in the presence of activin A maintained undifferentiation potency. Meanwhile, the photographs on the left side of FIG. 3 are images observed with a phase contrast microscope, and the photographs on the right side are images observed after ALP staining.
substance,measurement,setting,value
"activin A: homodimer of the β chain of inhibin A (βAβA), TGF-β superfamily protein; manufactured by R & D Systems, Inc.",morphological condition of embryoid bodies,[1],maintained a morphologically undifferentiated condition
same,ALP staining,[2],positive
same,concentration of added activin at which 201B7 cells had proliferative capacity,[3],3 to 30 ng/mL
same,staining of nuclei by anti-Oct3/4 antibody,[4],positively stained
same,concentration of added activin A at which iPS cells can maintain undifferentiation potency,[5]; ALP staining and morphology,0.01 to 0.1 µg/mL
same,ALP staining,[5]; activin A 1 ng/mL,positive
same,cell morphology,[5]; activin A 1 ng/mL,slightly similar to fibroblasts
same,ALP staining,[5]; activin A 10 ng/mL,positive
same,cell morphology,[5]; activin A 10 ng/mL,maintained an undifferentiated condition
same,ALP staining,[5]; activin A 30 ng/mL,positive
same,cell morphology,[5]; activin A 30 ng/mL,maintained an undifferentiated condition
same,ALP staining,[5]; activin A 100 ng/mL,positive
same,cell morphology,[5]; activin A 100 ng/mL,maintained an undifferentiated condition
